Patent US8883963B2 (Cadila Healthcare Limited, priority 2007, dated 2014)
Starred links: 1 amine or outer side, 2 acyl side, 3 side chain; linkers in the order of their positions; H or OH if unused. Non-standard residues stand in square brackets, D forms with d. Residues, ends and D or L forms follow the SMILES beside them. ξ: configuration not given here. *: point of attachment. X9 = CCc1cc(OC)ccc1-c1ccc(CC(NC(=S)[C@H](CC(=O)O)N*)C(=S)NC(CCCc2ccccc2F)C(N)=O)cc1; ξBip(2'-Et-4'-OMe) = CCc1cc(OC)ccc1-c1ccc(CC(N)C(=O)O)cc1; X6 = O=C(C(CCCc1ccc(Cl)cc1Cl)N[*:1])[*:2]; X10 = O=C(C(CCCc1ccc(F)cc1F)N[*:1])[*:2]; ξbishPhe(2-F) = NC(CCCc1ccccc1F)C(=O)O; ξαMePhe(2-F) = CC(N)(Cc1ccccc1F)C(=O)O; aThr = C[C@H](O)[C@H](N)C(=O)O; ξhhPhe = NC(CCCc1ccccc1)C(=O)O; ξAbu(4-CN) = N#CCCC(N)C(=O)O; Ac5c = NC1(C(=O)O)CCCC1; Aib = CC(C)(N)C(=O)O

System: RIN5F (Rat Insulinoma) cells
Assay: In vitro glucose-dependent insulin secretion (RIN5F cell assay screening protocol)
Format: cell-based
Settings: 16.7 mM glucose load
Experimental: RIN5F (Rat Insulinoma) cells were cultured in RPMI 1640 medium supplemented with sodium pyruvate (1 mM) HEPES and Glucose (4.5 g/L) in a humidified incubator (5% CO2), at 37° C. After trypsinization, RIN5F cells were seeded at a concentration of 0.2×10^6 cells per well, in 12 well plates.
The buffer was replaced after 40 min. and the cells were incubated (37° C.) with the test peptidomimetics, at different concentration, for 30 min., both in the presence (16.7 mM) and absence (0 mM) of glucose load. The supernatant was collected and the insulin amount was measured by ultra sensitive Rat insulin ELISA kit (Crystal Chem, IL). The protein was estimated in the supernatant using Bicinchoninic Acid kit, according to the manufacturer's protocol (Sigma Aldrich, MO). The total insulin content obtained in Pico-gram (pg) was divided with the total protein (μg) in order to normalize for differences in cell density between wells.

## CCc1cc(OC)ccc1-c1ccc(CC(NC(=O)[C@H](CC(=O)O)NC(=O)[C@H](CO)NC(=O)[C@@H](NC(=O)C(C)(Cc2ccccc2F)NC(=O)[C@@H](NC(=O)CNC(=O)[C@H](CCC(N)=O)NC(=O)C(C)(C)NC(=O)[C@@H](N)Cc2c[nH]cn2)[C@H](C)O)[C@H](C)O)C(=O)NC(CCCc2ccccc2)C(N)=O)cc1 (stereo partly drawn) [compound 113] (H-H[Aib]QG[aThr][ξαMePhe(2-F)][aThr]SD[ξBip(2'-Et-4'-OMe)][ξhhPhe]-NH2)
0.1 nM test compd.
  Insulin secretion: 15.6 ± 0.31 pg/µg/h
1 nM test compd.
  Insulin secretion: 21.8 ± 0.16 pg/µg/h
10 nM test compd.
  Insulin secretion: 35.6 ± 0.28 pg/µg/h

## CCc1cc(OC)ccc1-c1ccc(CC(NC(=O)[C@H](CC(=O)O)NC(=O)[C@H](CO)NC(=O)[C@@H](NC(=O)[C@H](Cc2ccccc2)NC(=O)[C@@H](NC(=O)CNC(=O)[C@H](CCC(N)=O)NC(=O)[C@H](CO)NC(=O)[C@@H](N)Cc2c[nH]cn2)[C@@H](C)O)[C@@H](C)O)C(=O)NC(CCCc2ccc(F)cc2F)C(N)=O)cc1 (stereo partly drawn) [compound 46] (H-HSQGTFTSD[ξBip(2'-Et-4'-OMe)][X10]-NH2)
0.1 nM test compd.
  Insulin secretion: 12.7 ± 0.21 pg/µg/h
1 nM test compd.
  Insulin secretion: 15.8 ± 0.33 pg/µg/h
10 nM test compd.
  Insulin secretion: 29.3 ± 0.19 pg/µg/h

## CCc1cc(OC)ccc1-c1ccc(CC(NC(=O)[C@H](CC(=O)O)NC(=O)[C@H](CO)NC(=O)[C@@H](NC(=O)C(C)(Cc2ccccc2F)NC(=O)[C@@H](NC(=O)CNC(=O)[C@H](CCC(N)=O)NC(=O)C(C)(C)NC(=O)[C@H](Cc2c[nH]cn2)NC(C)=O)[C@H](C)O)[C@H](C)O)C(=O)NC(CCCc2ccccc2)C(N)=O)cc1 (single isomer, unassigned) [compound 101]
0.1 nM test compd.
  Insulin secretion: 12.4 ± 0.22 pg/µg/h
1 nM test compd.
  Insulin secretion: 15.2 ± 0.32 pg/µg/h
10 nM test compd.
  Insulin secretion: 29.6 ± 0.50 pg/µg/h

## CCc1cc(OC)ccc1-c1ccc(CC(NC(=O)[C@H](CC(=O)O)NC(=O)[C@H](CO)NC(=O)[C@@H](NC(=O)C(C)(Cc2ccccc2F)NC(=O)[C@@H](NC(=O)CNC(=O)[C@H](CC(C(F)(F)F)C(F)(F)F)NC(=O)C(C)(C)NC(=O)[C@@H](N)Cc2c[nH]cn2)[C@@H](C)O)[C@@H](C)O)C(=O)NC(CCCc2cc(C)cc(C)c2)C(N)=O)cc1 (single isomer, unassigned) [compound 235]
0.1 nM test compd.
  Insulin secretion: 12.6 ± 0.25 pg/µg/h
1 nM test compd.
  Insulin secretion: 15.3 ± 0.31 pg/µg/h
10 nM test compd.
  Insulin secretion: 29.7 ± 0.48 pg/µg/h

## CCc1cc(OC)ccc1-c1ccc(CC(NC(=O)[C@H](CC(=O)O)NC(=O)[C@H](CO)NC(=O)[C@@H](NC(=O)[C@H](Cc2ccccc2)NC(=O)[C@@H](NC(=O)CNC(=O)C(CCC#N)NC(=O)C(C)(C)NC(=O)[C@@H](N)Cc2c[nH]cn2)[C@@H](C)O)[C@@H](C)O)C(=O)NC(CCCc2ccc(Cl)cc2Cl)C(N)=O)cc1 (stereo partly drawn) [compound 83] (H-H[Aib][ξAbu(4-CN)]GTFTSD[ξBip(2'-Et-4'-OMe)][X6]-NH2)
0.1 nM test compd.
  Insulin secretion: 12.3 ± 0.33 pg/µg/h
1 nM test compd.
  Insulin secretion: 14.1 ± 0.36 pg/µg/h
10 nM test compd.
  Insulin secretion: 28.0 ± 0.16 pg/µg/h

## CCc1cc(OC)ccc1-c1ccc(CC(NC(=O)[C@H](CC(=O)O)NC(=O)[C@H](CO)NC(=O)[C@@H](NC(=O)C(C)(Cc2ccccc2F)NC(=O)[C@@H](NC(=O)CNC(=O)[C@H](CCC(N)=O)NC(=O)C(C)(C)NC(=O)[C@@H](N)Cc2c[nH]cn2)[C@@H](C)O)[C@@H](C)O)C(=O)NC(CCCc2cccc(Cl)c2)C(N)=O)cc1 (single isomer, unassigned) [compound 39]
0.1 nM test compd.
  Insulin secretion: 11.1 ± 0.12 pg/µg/h
1 nM test compd.
  Insulin secretion: 13.1 ± 0.13 pg/µg/h
10 nM test compd.
  Insulin secretion: 19.0 ± 0.16 pg/µg/h

## CCc1cc(OC)ccc1-c1ccc(CC(NC(=O)[C@H](CC(=O)O)NC(=O)[C@H](CO)NC(=O)[C@@H](NC(=O)C(C)(Cc2ccccc2F)NC(=O)[C@@H](NC(=O)CNC(=O)[C@H](CCC(N)=O)NC(=O)C(C)(C)NC(=O)[C@H](Cc2c[nH]cn2)NC(C)=O)[C@H](C)O)[C@H](C)O)C(=O)NC(CCCc2ccccc2F)C(N)=O)cc1 (single isomer, unassigned) [compound 103]
0.1 nM test compd.
  Insulin secretion: 12.1 ± 0.51 pg/µg/h
1 nM test compd.
  Insulin secretion: 14.1 ± 0.19 pg/µg/h
10 nM test compd.
  Insulin secretion: 28.1 ± 0.29 pg/µg/h

## CCc1cc(OC)ccc1-c1ccc(CC(NC(=O)[C@H](CC(=O)O)NC(=O)[C@H](CO)NC(=O)[C@@H](NC(=O)[C@H](Cc2ccccc2)NC(=O)[C@@H](NC(=O)CNC(=O)[C@H](CCC(N)=O)NC(=O)C2(NC(=O)[C@@H](N)Cc3c[nH]cn3)CCCC2)[C@@H](C)O)[C@@H](C)O)C(=O)NC(CCCc2ccccc2)C(N)=O)cc1 (stereo partly drawn) [compound 25] (H-H[Ac5c]QGTFTSD[ξBip(2'-Et-4'-OMe)][ξhhPhe]-NH2)
0.1 nM test compd.
  Insulin secretion: 15.6 ± 0.30 pg/µg/h
1 nM test compd.
  Insulin secretion: 21.8 ± 0.11 pg/µg/h
10 nM test compd.
  Insulin secretion: 35.6 ± 0.20 pg/µg/h

## CCc1cc(OC)ccc1-c1ccc(CC(NC(=O)[C@H](CC(=O)O)NC(=O)[C@H](CO)NC(=O)[C@@H](NC(=O)C(C)(Cc2ccccc2F)NC(=O)[C@@H](NC(=O)CNC(=O)[C@H](CCC(N)=O)NC(=O)C(C)(C)NC(=O)[C@@H](N)Cc2c[nH]cn2)[C@H](C)O)[C@@H](C)O)C(=O)NC(CCCc2ccccc2)C(N)=O)cc1 (stereo partly drawn) [compound 109] (H-H[Aib]QG[aThr][ξαMePhe(2-F)]TSD[ξBip(2'-Et-4'-OMe)][ξhhPhe]-NH2)
0.1 nM test compd.
  Insulin secretion: 12.6 ± 0.25 pg/µg/h
1 nM test compd.
  Insulin secretion: 15.3 ± 0.31 pg/µg/h
10 nM test compd.
  Insulin secretion: 29.7 ± 0.48 pg/µg/h

## CCc1cc(OC)ccc1-c1ccc(CC(NC(=S)[C@H](CC(=O)O)NC(=O)[C@H](CO)NC(=O)[C@@H](NC(=O)C(C)(Cc2ccccc2F)NC(=O)[C@@H](NC(=O)CNC(=O)[C@H](CCC(N)=O)NC(=O)C(C)(C)NC(=O)[C@H](Cc2c[nH]cn2)NC(C)=O)[C@H](C)O)[C@H](C)O)C(=S)NC(CCCc2ccccc2F)C(N)=O)cc1 (stereo partly drawn) [compound 175] (Ac-H[Aib]QG[aThr][ξαMePhe(2-F)][aThr]S-X9)
0.1 nM test compd.
  Insulin secretion: 15.6 ± 0.33 pg/µg/h
1 nM test compd.
  Insulin secretion: 21.8 ± 0.16 pg/µg/h
10 nM test compd.
  Insulin secretion: 35.6 ± 0.26 pg/µg/h

## CCc1cc(OC)ccc1-c1ccc(CC(NC(=O)[C@H](CC(=O)O)NC(=O)[C@H](CO)NC(=O)[C@@H](NC(=O)[C@H](Cc2ccccc2)NC(=O)[C@@H](NC(=O)CNC(=O)[C@H](CCC(N)=O)NC(=O)[C@H](CO)NC(=O)[C@@H](N)Cc2c[nH]cn2)[C@@H](C)O)[C@@H](C)O)C(=O)NC(CCCc2ccc(F)cc2C(F)(F)F)C(N)=O)cc1 (single isomer, unassigned) [compound 48]
0.1 nM test compd.
  Insulin secretion: 12.9 ± 0.14 pg/µg/h
1 nM test compd.
  Insulin secretion: 15.8 ± 0.13 pg/µg/h
10 nM test compd.
  Insulin secretion: 29.9 ± 0.15 pg/µg/h

## CCc1cc(OC)ccc1-c1ccc(CC(NC(=O)[C@H](CC(=O)O)NC(=O)[C@H](CO)NC(=O)[C@@H](NC(=O)C(C)(Cc2ccccc2F)NC(=O)[C@@H](NC(=O)CNC(=O)[C@H](CCC(N)=O)NC(=O)C(C)(C)NC(=O)[C@@H](N)Cc2c[nH]cn2)[C@H](C)O)[C@@H](C)O)C(=O)NC(CCCc2ccccc2F)C(N)=O)cc1 (stereo partly drawn) [compound 111] (H-H[Aib]QG[aThr][ξαMePhe(2-F)]TSD[ξBip(2'-Et-4'-OMe)][ξbishPhe(2-F)]-NH2)
0.1 nM test compd.
  Insulin secretion: 16.2 ± 0.20 pg/µg/h
1 nM test compd.
  Insulin secretion: 22.2 ± 0.20 pg/µg/h
10 nM test compd.
  Insulin secretion: 36.1 ± 0.31 pg/µg/h
